Source: BigSolDB 2.1

Nc1nc(N)c2nc(-c3ccccc3)c(N)nc2n1
solubility (mole fraction)
Details | 283.15 K | 288.15 K | 293.15 K | 298.15 K | 303.15 K | 308.15 K | 313.15 K | 318.15 K | 323.15 K
in 1,2-dichloroethane | 1.72e-06 | 2.31e-06 | 3.52e-06 | 5.23e-06 | 7.52e-06 | 1.07e-05 | 1.7e-05 | 2.38e-05 | 3.55e-05
in 2-methoxyethanol | 0.00188 | 0.00248 | 0.00338 | 0.00454 | 0.00605 | 0.00792 | 0.0106 | 0.014 | 0.0181
in DMSO | – | – | 0.00201 | 0.00281 | 0.00381 | 0.00512 | 0.0068 | 0.00901 | 0.0118
in acetonitrile | 2.52e-06 | 3.43e-06 | 5.17e-06 | 7.99e-06 | 1.16e-05 | 1.61e-05 | 2.43e-05 | 3.47e-05 | 4.99e-05
in ethyl acetate | 2.91e-06 | 4.53e-06 | 7.32e-06 | 9.44e-06 | 1.42e-05 | 1.95e-05 | 2.8e-05 | 3.98e-05 | 6.09e-05
in isobutanol | 2.88e-06 | 4.02e-06 | 6.12e-06 | 8.74e-06 | 1.23e-05 | 1.71e-05 | 2.55e-05 | 3.79e-05 | 5.43e-05
in isopropanol | 2.02e-06 | 3.53e-06 | 4.92e-06 | 7.42e-06 | 1.06e-05 | 1.47e-05 | 2.08e-05 | 2.93e-05 | 4.19e-05
in methanol | 2.91e-05 | 4.31e-05 | 6.36e-05 | 8.42e-05 | 0.000127 | 0.000169 | 0.00024 | 0.00032 | 0.000449
in n-butanol | 3.32e-06 | 5.33e-06 | 8.08e-06 | 1.15e-05 | 1.61e-05 | 2.11e-05 | 3.11e-05 | 4.32e-05 | 6.48e-05
in n-methylformamide | 0.000547 | 0.000726 | 0.00103 | 0.00143 | 0.00197 | 0.00264 | 0.00353 | 0.00461 | 0.00583
in n-propanol | 4.24e-06 | 6.13e-06 | 9.12e-06 | 1.43e-05 | 2.02e-05 | 2.82e-05 | 3.88e-05 | 5.29e-05 | 7.03e-05
in water | 1.07e-06 | 1.29e-06 | 1.51e-06 | 1.79e-06 | 2.16e-06 | 2.64e-06 | 3.13e-06 | 3.76e-06 | 4.61e-06
